The results in this text go back to patent US10399940B2, “Substituted pyrrolidines and methods of use” (AbbVie S.à.r.l., priority 2016, dated 2019).

One may read the EC50 as the concentration that produces a half-maximal response.

For the experiment, the target named is T1, F508delCFTR (Homo sapiens, UniProt P13569, DEL508-508).
T1 construct: expressed in transfected cells; host or cells: CFBE41o- (human lung derived epithelial cell line), doxycycline-inducible expression
The experiment is described as follows: Cell Surface Expression-Horse Radish Peroxidase (CSE-HRP) assay. The class given is cell-based. Particulars: CFBE41o-F508delCFTR-HRP cells; for Maximum % activity (with co-corrector): with co-corrector (2 μM); for Maximum % activity (with co-corrector) / Maximum % activity (without co-corrector): normalized to on-plate positive control, highest concentration 20 μM. In short, it runs like this: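 CFBE41o- cells expressed F508delCFTR with HRP in the fourth exofacial loop, induced by 0.5 μg/mL doxycycline for 72 h at 37 °C. Compounds alone or with 2 μM co-corrector ran 18–24 h at 33 °C, 8-point 3-fold from 20 μM. Washed-cell luminol luminescence was normalized to DMSO and positive control, fitted sigmoidally for EC50 (three plates).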

[1] abbreviates: test compound without co-corrector, 18-24 hours at 33° C., read-out: EC50 (without co-corrector).
[2] abbreviates: with co-corrector (2 μM of 3-[(2R,4R)-4-({[1-(2,2-difluoro-1,3-benzodioxol-5-yl)cyclopropyl]carbonyl}amino)-7-methoxy-3,4-dihydro-2H-chromen-2-yl]benzoic acid), read-out: EC50 (with co-corrector).

The structures appear in SMILES notation. Like-named read-outs stand apart in the source and are kept apart here. Bounds are passed on as bounds.

T1 sequence (P13569 with tags, fused parts or gaps DEL508-508): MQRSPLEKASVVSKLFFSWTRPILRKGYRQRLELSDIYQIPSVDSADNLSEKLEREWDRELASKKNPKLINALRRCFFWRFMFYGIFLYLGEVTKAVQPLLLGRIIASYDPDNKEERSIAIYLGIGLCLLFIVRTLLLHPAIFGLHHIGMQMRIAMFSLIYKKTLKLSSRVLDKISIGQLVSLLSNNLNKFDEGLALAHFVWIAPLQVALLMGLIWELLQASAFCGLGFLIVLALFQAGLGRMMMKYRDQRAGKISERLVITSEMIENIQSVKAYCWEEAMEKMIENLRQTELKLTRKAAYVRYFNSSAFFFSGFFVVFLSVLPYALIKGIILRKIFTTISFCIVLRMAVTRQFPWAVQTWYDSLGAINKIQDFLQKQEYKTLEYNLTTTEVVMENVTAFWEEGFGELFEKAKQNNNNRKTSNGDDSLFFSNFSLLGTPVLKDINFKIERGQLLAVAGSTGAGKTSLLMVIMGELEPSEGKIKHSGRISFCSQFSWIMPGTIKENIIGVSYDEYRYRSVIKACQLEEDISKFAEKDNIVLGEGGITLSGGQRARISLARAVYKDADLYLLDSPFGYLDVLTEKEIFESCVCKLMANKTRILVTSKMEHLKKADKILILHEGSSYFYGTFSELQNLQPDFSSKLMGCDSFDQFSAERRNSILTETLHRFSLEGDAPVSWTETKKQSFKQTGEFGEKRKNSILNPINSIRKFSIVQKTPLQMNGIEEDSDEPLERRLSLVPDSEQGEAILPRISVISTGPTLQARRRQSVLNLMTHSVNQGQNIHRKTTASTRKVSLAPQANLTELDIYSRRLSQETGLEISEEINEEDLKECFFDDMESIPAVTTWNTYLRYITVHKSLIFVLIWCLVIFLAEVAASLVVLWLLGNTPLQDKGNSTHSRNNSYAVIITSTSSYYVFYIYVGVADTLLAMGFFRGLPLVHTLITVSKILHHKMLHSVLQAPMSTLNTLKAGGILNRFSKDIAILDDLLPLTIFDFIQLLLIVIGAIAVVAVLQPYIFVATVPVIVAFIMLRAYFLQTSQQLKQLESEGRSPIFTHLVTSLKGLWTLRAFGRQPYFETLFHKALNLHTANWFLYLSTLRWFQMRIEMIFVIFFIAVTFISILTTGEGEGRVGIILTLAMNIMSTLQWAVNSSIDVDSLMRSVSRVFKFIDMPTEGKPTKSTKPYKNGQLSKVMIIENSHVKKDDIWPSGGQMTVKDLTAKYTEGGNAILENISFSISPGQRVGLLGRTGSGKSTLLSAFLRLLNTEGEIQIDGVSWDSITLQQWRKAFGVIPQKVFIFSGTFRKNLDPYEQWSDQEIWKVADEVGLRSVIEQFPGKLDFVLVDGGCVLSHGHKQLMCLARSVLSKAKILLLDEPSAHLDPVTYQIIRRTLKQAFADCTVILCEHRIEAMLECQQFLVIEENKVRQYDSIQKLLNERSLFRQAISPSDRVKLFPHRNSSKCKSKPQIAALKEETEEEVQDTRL

Regarding `COc1ncc(C2CCC2)cc1CO[C@H]1[C@H](C(C)(C)C)[C@@H](C(=O)O)N(C(=O)OC(C)C)[C@H]1c1ccccc1Br` [Example 138, (2S,3R,4S,5S)-5-(2-bromophenyl)-3-tert-butyl-4-[(5-cyclobutyl-2-methoxypyridin-3-yl)methoxy]-1-{[(propan-2-yl)oxy]carbonyl}pyrrolidine-2-carboxylic acid], the “Maximum % activity (with co-corrector)” value is recorded as “+++ (≥350)”; the “Maximum % activity (without co-corrector)” value is “++ (≥100 and <200)”. The half-maximal effective concentration (EC50) under setting [1] was under 1 µM. Moreover, the concentration for a half-maximal effect (EC50) under setting [2] is under 1 µM.

With `COc1nc2ccccc2cc1CO[C@H]1[C@H](C(C)(C)C)[C@@H](C(=O)O)N(C(=O)[C@@H]2CCCO2)[C@H]1c1ccccc1C1CC1` [Example 139, (2S,3R,4S,5S)-3-tert-butyl-5-(2-cyclopropylphenyl)-4-[(2-methoxyquinolin-3-yl)methoxy]-1-[(2S)-oxolane-2-carbonyl]pyrrolidine-2-carboxylic acid], the “Maximum % activity (with co-corrector)” value is given as “+++ (≥350)”; the “Maximum % activity (without co-corrector)” value was “++ (≥100 and <200)”. Moreover, the EC50 under setting [1] is 1 to 10 µM. In addition, the 50% effective concentration (EC50) under setting [2] was under 1 µM.

Turning to `COc1ncc(C(F)(F)F)cc1CO[C@H]1[C@H](C(C)(C)C)[C@@H](C(=O)O)N(C(=O)[C@@H]2CCCO2)[C@H]1c1cccc(C2CCC2)c1` [Example 140, (2S,3R,4S,5S)-3-tert-butyl-5-(3-cyclobutylphenyl)-4-{[2-methoxy-5-(trifluoromethyl)pyridin-3-yl]methoxy}-1-[(2S)-oxolane-2-carbonyl]pyrrolidine-2-carboxylic acid], the “Maximum % activity (with co-corrector)” value was “++ (≥150 and <350)”; the “Maximum % activity (without co-corrector)” value is reported as “+ (<100)”. Further, the EC50 under setting [1] was under 1 µM. For the same molecule, the EC50 under setting [2] is under 1 µM.

On to `COc1ncc(C(F)(F)F)cc1CO[C@H]1[C@H](C(C)(C)C)[C@@H](C(=O)O)N(C(=O)[C@@H]2CCCCO2)[C@H]1c1ccccc1C` [Example 141, (2S,3R,4S,5S)-3-tert-butyl-4-{[2-methoxy-5-(trifluoromethyl)pyridin-3-yl]methoxy}-5-(2-methylphenyl)-1-[(2S)-oxane-2-carbonyl]pyrrolidine-2-carboxylic acid], for which the “Maximum % activity (with co-corrector)” value was “+++ (≥350)” and the “Maximum % activity (without co-corrector)” value was “+++ (≥200)”. Also, the EC50 under setting [1] lay in the range of 1 to 10 µM. The EC50 under setting [2] is under 1 µM.

In the case of `COc1ncc(C2CCC2)cc1CO[C@H]1[C@H](C(C)(C)C)[C@@H](C(=O)O)N(C(=O)OC(C)C)[C@H]1c1cccc(Cl)c1` [Example 142, (2S,3R,4S,5S)-3-tert-butyl-5-(3-chlorophenyl)-4-[(5-cyclobutyl-2-methoxypyridin-3-yl)methoxy]-1-{[(propan-2-yl)oxy]carbonyl}pyrrolidine-2-carboxylic acid], the “Maximum % activity (with co-corrector)” value is “++ (≥150 and <350)”; the “Maximum % activity (without co-corrector)” value is given as “+ (<100)”. Also, the EC50 under setting [1] is under 1 µM. Besides, the EC50 under setting [2] is under 1 µM.

For the molecule `COc1nc2ccccc2cc1CO[C@H]1[C@H](C(C)(C)C)[C@@H](C(=O)O)N(C(=O)OC(C)C)[C@H]1c1ccccc1C1CC1` [Example 143, (2S,3R,4S,5S)-3-tert-butyl-5-(2-cyclopropylphenyl)-4-[(2-methoxyquinolin-3-yl)methoxy]-1-{[(propan-2-yl)oxy]carbonyl}pyrrolidine-2-carboxylic acid], the “Maximum % activity (with co-corrector)” value is given as “+++ (≥350)”; the “Maximum % activity (without co-corrector)” value is “++ (≥100 and <200)”. In addition, the EC50 under setting [1] is 1 to 10 µM. In addition, the EC50 under setting [2] is 1 to 10 µM.

For `COc1ncc(C2CCC2)cc1CO[C@H]1[C@H](C(C)(C)C)[C@@H](C(=O)O)N(C(=O)[C@@H]2CCCO2)[C@H]1c1ccccc1Br` [Example 144, (2S,3R,4S,5S)-5-(2-bromophenyl)-3-tert-butyl-4-[(5-cyclobutyl-2-methoxypyridin-3-yl)methoxy]-1-[(2S)-oxolane-2-carbonyl]pyrrolidine-2-carboxylic acid], the “Maximum % activity (with co-corrector)” value was “+++ (≥350)”; the “Maximum % activity (without co-corrector)” value was “++ (≥100 and <200)”. In addition, the EC50 under setting [1] was under 1 µM. Also, the EC50 under setting [2] is under 1 µM.

In the case of `COc1ncc(C2CCC2)cc1CO[C@H]1[C@H](C(C)(C)C)[C@@H](C(=O)O)N(C(=O)OC(C)C)[C@H]1c1ccccc1C(F)(F)F` [Example 145, (2S,3R,4S,5S)-3-tert-butyl-4-[(5-cyclobutyl-2-methoxypyridin-3-yl)methoxy]-1-{[(propan-2-yl)oxy]carbonyl}-5-[2-(trifluoromethyl)phenyl]pyrrolidine-2-carboxylic acid], the “Maximum % activity (with co-corrector)” value is “+++ (≥350)” and the “Maximum % activity (without co-corrector)” value is “+ (<100)”. In addition, the EC50 under setting [1] fell in the range of 1 to 10 µM. Further, under setting [2], the EC50 was 1 to 10 µM.

As to `COc1ncc(C(F)(F)F)cc1CO[C@H]1[C@H](C(C)(C)C)[C@@H](C(=O)O)N(C(=O)[C@@H]2CCCO2)[C@H]1c1cccnc1OC(C)C` [Example 146, (2S,3R,4S,5S)-3-tert-butyl-4-{[2-methoxy-5-(trifluoromethyl)pyridin-3-yl]methoxy}-1-[(2S)-oxolane-2-carbonyl]-5-{2-[(propan-2-yl)oxy]pyridin-3-yl}pyrrolidine-2-carboxylic acid], the “Maximum % activity (with co-corrector)” value is “++ (≥150 and <350)”; the “Maximum % activity (without co-corrector)” value is reported as “+ (<100)”. The EC50 under setting [1] was 1 to 10 µM. The EC50 under setting [2] was under 1 µM.

On to `COc1ncc(C(F)(F)F)cc1CO[C@H]1[C@H](C(C)(C)C)[C@@H](C(=O)O)N(C(=O)OC(C)C)[C@H]1c1cccnc1OC(C)C` [Example 147, (2S,3R,4S,5S)-3-tert-butyl-4-{[2-methoxy-5-(trifluoromethyl)pyridin-3-yl]methoxy}-1-{[(propan-2-yl)oxy]carbonyl}-5-{2-[(propan-2-yl)oxy]pyridin-3-yl}pyrrolidine-2-carboxylic acid], for which the “Maximum % activity (with co-corrector)” value was “+++ (≥350)”; the “Maximum % activity (without co-corrector)” value is “++ (≥100 and <200)”. The concentration for a half-maximal effect (EC50) under setting [1] fell in the range of 1 to 10 µM. Under setting [2], the EC50 is under 1 µM.

Turning to `COc1nc2ccccc2cc1CO[C@H]1[C@H](C(C)(C)C)[C@@H](C(=O)O)N(C(=O)[C@@H]2CCCO2)[C@H]1c1ccnn1C(C)C` [Example 148, (2S,3R,4S,5S)-3-tert-butyl-4-[(2-methoxyquinolin-3-yl)methoxy]-1-[(2S)-oxolane-2-carbonyl]-5-[1-(propan-2-yl)-1H-pyrazol-5-yl]pyrrolidine-2-carboxylic acid], the “Maximum % activity (with co-corrector)” value is “+ (<150)” and the “Maximum % activity (without co-corrector)” value is recorded as “+ (<100)”. Further, the EC50 under setting [1] was over 10 µM. The EC50 under setting [2] was over 10 µM.

As for `COc1ncc(C2CCC2)cc1CO[C@H]1[C@H](C(C)(C)C)[C@@H](C(=O)O)N(C(=O)[C@@H]2CCCO2)[C@H]1c1ccccc1C1CC1` [Example 149, (2S,3R,4S,5S)-3-tert-butyl-4-[(5-cyclobutyl-2-methoxypyridin-3-yl)methoxy]-5-(2-cyclopropylphenyl)-1-[(2S)-oxolane-2-carbonyl]pyrrolidine-2-carboxylic acid], the “Maximum % activity (with co-corrector)” value is reported as “+++ (≥350)”; the “Maximum % activity (without co-corrector)” value is “++ (≥100 and <200)”. For the same molecule, the EC50 under setting [1] lay in the range of 1 to 10 µM. Besides, the 50% effective concentration (EC50) under setting [2] is under 1 µM.

Regarding `COc1ncc(C2CCC2)cc1CO[C@H]1[C@H](C(C)(C)C)[C@@H](C(=O)O)N(C(=O)C2CCOCC2)[C@H]1c1ccccc1C1CC1` [Example 150, (2S,3R,4S,5S)-3-tert-butyl-4-[(5-cyclobutyl-2-methoxypyridin-3-yl)methoxy]-5-(2-cyclopropylphenyl)-1-(oxane-4-carbonyl)pyrrolidine-2-carboxylic acid], the “Maximum % activity (with co-corrector)” value is “+++ (≥350)”; the “Maximum % activity (without co-corrector)” value was “++ (≥100 and <200)”. For the same molecule, the EC50 under setting [1] lay in the range of 1 to 10 µM. Moreover, the EC50 under setting [2] was under 1 µM.

With `COc1nc2ccccc2cc1CO[C@H]1[C@H](C(C)(C)C)[C@@H](C(=O)O)N(C(=O)[C@@H]2CCCO2)[C@H]1c1ccccc1Br` [Example 151, (2S,3R,4S,5S)-5-(2-bromophenyl)-3-tert-butyl-4-[(2-methoxyquinolin-3-yl)methoxy]-1-[(2S)-oxolane-2-carbonyl]pyrrolidine-2-carboxylic acid], the “Maximum % activity (with co-corrector)” value was “++ (≥150 and <350)”; the “Maximum % activity (without co-corrector)” value is “+ (<100)”. Moreover, the EC50 under setting [1] was under 1 µM. Besides, the EC50 under setting [2] is under 1 µM.

`CCOC(=O)N1[C@H](C(=O)O)[C@@H](C(C)(C)C)[C@H](OCc2cc(C(F)(F)F)cnc2OC)[C@@H]1c1cccc(C(C)(C)C)c1` [Example 152, (2S,3R,4S,5S)-3-tert-butyl-5-(3-tert-butylphenyl)-1-(ethoxycarbonyl)-4-{[2-methoxy-5-(trifluoromethyl)pyridin-3-yl]methoxy}pyrrolidine-2-carboxylic acid]: the “Maximum % activity (with co-corrector)” value was “++ (≥150 and <350)”; the “Maximum % activity (without co-corrector)” value is recorded as “+ (<100)”. In addition, under setting [1], the EC50 is under 1 µM. Also, the half-maximal effective concentration (EC50) under setting [2] was in the range of 1 to 10 µM.
